In ChEMBL document CHEMBL3784917, “Recent Progress in Histone Demethylase Inhibitors” (J Med Chem, 2016):

Key:
[1] = target: T1, Lysine-specific demethylase 4C (Homo sapiens, UniProt Q9H3R0); assay: Inhibition of KDM4C (unknown origin) preincubated for 15 mins followed by histone substrate addition measured after 1 hr by alphascreen assay
T1 sequence (Q9H3R0 whole entry): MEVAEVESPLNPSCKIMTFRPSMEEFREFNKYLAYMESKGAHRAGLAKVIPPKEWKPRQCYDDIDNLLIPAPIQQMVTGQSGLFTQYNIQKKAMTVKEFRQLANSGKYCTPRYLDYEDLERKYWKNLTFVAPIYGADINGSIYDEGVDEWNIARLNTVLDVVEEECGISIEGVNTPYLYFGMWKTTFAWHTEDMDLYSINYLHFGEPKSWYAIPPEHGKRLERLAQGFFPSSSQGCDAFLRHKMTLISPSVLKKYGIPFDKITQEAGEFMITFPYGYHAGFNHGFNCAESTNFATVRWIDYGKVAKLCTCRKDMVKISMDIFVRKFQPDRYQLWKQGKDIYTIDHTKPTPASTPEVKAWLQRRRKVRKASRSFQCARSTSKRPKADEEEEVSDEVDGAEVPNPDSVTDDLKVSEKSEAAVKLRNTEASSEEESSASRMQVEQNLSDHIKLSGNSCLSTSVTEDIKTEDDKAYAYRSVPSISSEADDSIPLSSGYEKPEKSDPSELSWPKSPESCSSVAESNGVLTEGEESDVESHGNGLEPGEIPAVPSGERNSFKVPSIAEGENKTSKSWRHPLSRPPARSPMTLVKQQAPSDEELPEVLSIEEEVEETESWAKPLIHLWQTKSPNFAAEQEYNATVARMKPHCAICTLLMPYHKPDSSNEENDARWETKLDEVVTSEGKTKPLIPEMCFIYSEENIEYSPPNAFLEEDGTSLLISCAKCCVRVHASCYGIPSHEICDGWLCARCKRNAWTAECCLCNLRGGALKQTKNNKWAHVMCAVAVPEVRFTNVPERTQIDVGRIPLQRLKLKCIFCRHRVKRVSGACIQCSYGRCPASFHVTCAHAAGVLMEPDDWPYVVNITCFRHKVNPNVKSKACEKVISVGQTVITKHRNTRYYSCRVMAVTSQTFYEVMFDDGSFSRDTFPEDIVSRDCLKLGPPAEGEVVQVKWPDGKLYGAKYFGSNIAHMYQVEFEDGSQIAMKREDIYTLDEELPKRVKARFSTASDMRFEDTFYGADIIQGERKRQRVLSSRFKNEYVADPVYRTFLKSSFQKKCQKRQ

[2] = target: Egl nine homolog 1 (Homo sapiens, UniProt Q9GZT9); assay: Inhibition of PHD2 (unknown origin) preincubated for 15 mins followed by histone substrate addition measured after 1 hr by alphascreen assay
Egl nine homolog 1, sequence (Q9GZT9 whole entry, the tested form may be a part): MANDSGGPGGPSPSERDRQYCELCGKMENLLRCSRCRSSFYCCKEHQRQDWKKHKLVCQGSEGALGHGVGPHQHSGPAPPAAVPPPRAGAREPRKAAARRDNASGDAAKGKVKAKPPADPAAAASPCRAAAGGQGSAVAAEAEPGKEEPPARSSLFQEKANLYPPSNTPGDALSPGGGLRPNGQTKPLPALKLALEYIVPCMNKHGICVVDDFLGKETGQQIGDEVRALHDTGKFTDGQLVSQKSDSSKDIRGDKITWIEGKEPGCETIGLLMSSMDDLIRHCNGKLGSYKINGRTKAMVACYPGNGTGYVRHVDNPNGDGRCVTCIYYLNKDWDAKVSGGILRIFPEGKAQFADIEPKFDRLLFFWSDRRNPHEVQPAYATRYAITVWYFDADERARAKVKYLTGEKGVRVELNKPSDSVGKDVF

[3] = target: T2, Lysine-specific demethylase 3A (Homo sapiens, UniProt Q9Y4C1); assay: Inhibition of recombinant human N-terminal FLAG-tagged KDM3A (2 to 1322 residues) expressed in baculovirus infected sf9 cells using biotin-H3K9me as substrate preincubated for 10 mins followed by substrate addition measured after 10 mins by AlphaLisa assay
T2 sequence (Q9Y4C1 whole entry): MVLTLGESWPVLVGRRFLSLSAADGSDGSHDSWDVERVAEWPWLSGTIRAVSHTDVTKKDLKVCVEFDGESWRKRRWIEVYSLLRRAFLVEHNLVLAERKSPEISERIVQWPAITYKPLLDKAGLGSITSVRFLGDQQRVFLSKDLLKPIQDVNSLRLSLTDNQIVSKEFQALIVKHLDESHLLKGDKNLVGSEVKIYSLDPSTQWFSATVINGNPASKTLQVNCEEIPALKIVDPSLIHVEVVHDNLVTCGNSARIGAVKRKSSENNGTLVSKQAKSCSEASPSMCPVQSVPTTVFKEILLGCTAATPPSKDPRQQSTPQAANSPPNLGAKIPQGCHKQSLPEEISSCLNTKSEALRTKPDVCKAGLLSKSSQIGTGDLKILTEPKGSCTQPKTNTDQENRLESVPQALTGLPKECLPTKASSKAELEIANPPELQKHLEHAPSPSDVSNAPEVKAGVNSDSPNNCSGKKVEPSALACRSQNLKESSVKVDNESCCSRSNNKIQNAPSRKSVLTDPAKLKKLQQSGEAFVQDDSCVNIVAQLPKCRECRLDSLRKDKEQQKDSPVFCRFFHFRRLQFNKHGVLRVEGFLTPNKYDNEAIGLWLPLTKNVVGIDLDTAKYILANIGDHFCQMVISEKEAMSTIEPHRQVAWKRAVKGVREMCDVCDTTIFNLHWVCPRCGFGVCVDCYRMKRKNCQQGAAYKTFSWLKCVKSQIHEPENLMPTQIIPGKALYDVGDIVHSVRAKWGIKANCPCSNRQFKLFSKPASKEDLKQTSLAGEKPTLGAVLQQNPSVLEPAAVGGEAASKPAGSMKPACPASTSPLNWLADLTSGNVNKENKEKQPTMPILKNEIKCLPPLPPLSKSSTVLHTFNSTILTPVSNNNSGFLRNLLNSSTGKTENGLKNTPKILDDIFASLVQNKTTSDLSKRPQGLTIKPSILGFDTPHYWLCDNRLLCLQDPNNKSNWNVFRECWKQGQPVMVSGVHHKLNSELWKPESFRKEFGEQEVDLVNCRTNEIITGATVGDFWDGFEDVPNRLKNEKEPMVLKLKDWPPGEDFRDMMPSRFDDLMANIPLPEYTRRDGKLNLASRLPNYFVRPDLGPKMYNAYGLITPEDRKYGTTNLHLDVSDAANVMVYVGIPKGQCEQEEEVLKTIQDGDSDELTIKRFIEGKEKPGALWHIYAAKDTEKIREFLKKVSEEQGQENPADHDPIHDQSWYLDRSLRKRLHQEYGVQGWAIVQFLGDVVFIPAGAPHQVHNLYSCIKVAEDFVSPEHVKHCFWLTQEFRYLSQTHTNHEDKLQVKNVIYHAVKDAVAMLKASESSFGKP

[4] = tested on: MCF7; assay: Antiproliferative activity against human MCF7 cells assessed as reduction in cell viability after 120 hrs by ATPlite assay; type: functional, cell-based; details: MCF7, 120 h

`Cc1ccsc1C(NC(=O)c1ccccc1)c1cc(Cl)c2cccnc2c1O` (racemic) showed an IC50 [1] of 5000 nM and an IC50 [2] of 96000 nM.

With `CCN(CCN(C)C)C(=O)CNCc1cc(CNC(=O)C(F)(F)F)ccn1` the IC50 [3] was > 2500 nM.

In the case of `CCN(CC)CCCCNCc1cc(C=O)ccn1`, the EC50 [4] is reported as < 250 nM and the IC50 [3] is reported as > 2500 nM.

`CCN(CCN(C)C)C(=O)CNCc1cc(C(=O)O)ccn1` was tested, and the IC50 [4] was 1000 nM.
